For this data set, the system named is bone marrow. Briefly: Micronucleus test, Experiment 7. Type of data set: in vivo, ICR male mice. Conditions: oral 100 to 3000 mg/kg, mouse bone marrow, 24 hours. The method, then:
9,1-(Methylimino)methano-7-fluoro-8-(2-fluoromethylmorpholino)-5-oxo-5H-thiazolo[3,2-a]quinoline-4-carboxylic acid (compound of Example 3) [the compound (C) of the present invention] was suspended in sterilized distilled water. The suspension was orally administered to ICR male mice (8 weeks age, weighing 30 to 36 g, 3 mice in each group) at a rate of 3000, 1000, 300 or 100 mg/kg body weight of the test compound (C). After 24 hours, these mice were killed and the bone marrow was collected and observed the presence of micronuclei.

Molecules are shown by their SMILES.

As for `CN1Cc2csc3c(C(=O)O)c(=O)c4cc(F)c(N5CCOC(CF)C5)c1c4n23` (stereo not shown) [Compound (C), 9,1-(Methylimino)methano-7-fluoro-8-(2-fluoromethylmorpholino)-5-oxo-5H-thiazolo[3,2-a]quinoline-4-carboxylic acid], the micronucleus inducing activity entry was “no nucleus inducing activity”.

The record behind these values is patent US5191079A, “Quinolinecarboxylic acid derivatives” (priority 1990, dated 1993).
